Laboratory results: ChEMBL document CHEMBL1146930, “Hydantoin derivatives as non-peptidic inhibitors of Ras farnesyl transferase” (Bioorg Med Chem Lett, 2006)

molecular target: Protein farnesyltransferase (Homo sapiens, UniProt P49354+P49356); test: Inhibition of farnesyl transferase; type: protein-complex assay

| Structure (SMILES) | IC50 [µM] |
| --- | --- |
| CSCC[C@H](NC(=O)CN1C(=O)N(CCc2cnc[nH]2)C(=O)C1(C)c1cccc2ccccc12)C(=O)O (stereo partly drawn) | 4.8 |
| CC1(c2cccc3ccccc23)C(=O)N(CCCn2ccnc2)C(=O)N1Cc1cccc(Br)c1 (stereo not drawn) | 0.37 |
| CC1(c2cccc3ccccc23)C(=O)N(CCCn2ccnc2)C(=O)N1Cc1ccc(C(=O)O)cc1 (stereo not drawn) | 0.2 |
| COC(=O)[C@H](CCSC)NC(=O)CN1C(=O)N(CCCc2cnc[nH]2)C(=O)C1(C)c1cccc2ccccc12 (stereo partly drawn) | 500 |
| CC1(c2cccc3ccccc23)C(=O)N(CCCn2ccnc2)C(=O)N1Cc1ccc(Br)cc1 (stereo not drawn) | 0.16 |
| CC1(c2cccc3ccccc23)C(=O)N(CCCn2ccnc2)C(=O)N1Cc1cccc(Cl)c1 (stereo not drawn) | 0.24 |
| CC1(c2cccc3ccccc23)C(=O)N(CCCn2ccnc2)C(=O)N1Cc1cccc(C(F)(F)F)c1 (stereo not drawn) | 1.7 |
| CC1(c2cccc3ccccc23)C(=O)N(CCCn2ccnc2)C(=O)N1Cc1ccc(C#N)cc1 (stereo not drawn) | 0.9 |
| CC1(c2cccc3ccccc23)C(=O)N(CCCn2ccnc2)C(=O)N1Cc1ccccc1CNS(C)(=O)=O (stereo not drawn) | 0.5 |
| CCOC(=O)CN1C(=O)N(CCCn2ccnc2)C(=O)C1(C)c1cccc2ccccc12 (stereo not drawn) | 1 |
| CC1(c2cccc3ccccc23)C(=O)N(CCCn2ccnc2)C(=O)N1Cc1ccc(S(C)(=O)=O)cc1 (stereo not drawn) | 1.1 |
| CCOC(=O)CN1C(=O)N(CCCc2cncn2C)C(=O)C1(C)c1cccc2ccccc12 (stereo not drawn) | 2.8 |
| CC1(c2cccc3ccccc23)NC(=O)N(CCCn2ccnc2)C1=O (stereo not drawn) | 7.7 |
| CC1(c2cccc3ccccc23)C(=O)N(CCCn2ccnc2)C(=O)N1Cc1ccc(S(C)(=O)=O)c(C#N)c1 (stereo not drawn) | 0.73 |
| CSCC[C@H](NC(=O)CN1C(=O)N(Cc2c[nH]cn2)C(=O)C1(C)c1cccc2ccccc12)C(=O)O (stereo partly drawn) | 61 |
| CC1(c2cccc3ccccc23)C(=O)N(CCCn2ccnc2)C(=O)N1Cc1ccc(CNS(C)(=O)=O)cc1 (stereo not drawn) | 0.35 |
| CC1(c2cccc3ccccc23)NC(=O)N(CCCc2cnc[nH]2)C1=O (stereo not drawn) | 40 |
| CC1(c2cccc3ccccc23)C(=O)N(CCCn2ccnc2)C(=O)N1Cc1cccc(CNS(C)(=O)=O)c1 (stereo not drawn) | 1.2 |
| COC(=O)[C@H](CCSC)NC(=O)CN1C(=O)N(CCc2cnc[nH]2)C(=O)C1(C)c1cccc2ccccc12 (stereo partly drawn) | 2500 |
| CC1(c2cccc3ccccc23)C(=O)N(CCCn2ccnc2)C(=O)N1Cc1cccc(Oc2ccccc2)c1 (stereo not drawn) | 0.72 |
| CC1(c2cccc3ccccc23)C(=O)N(CCCn2ccnc2)C(=O)N1Cc1ccccc1C#N (stereo not drawn) | 1.3 |
| CSCc1ccc(CN2C(=O)N(CCCn3ccnc3)C(=O)C2(C)c2cccc3ccccc23)cc1 (stereo not drawn) | 0.21 |
| CSc1ccc(CN2C(=O)N(CCCn3ccnc3)C(=O)C2(C)c2cccc3ccccc23)cc1C#N (stereo not drawn) | 0.08 |
| CC1(c2cccc3ccccc23)C(=O)N(CCCn2ccnc2)C(=O)N1Cc1cccc(C#N)c1 (stereo not drawn) | 0.09 |
| CSCC[C@H](NC(=O)CN1C(=O)N(CCCc2c[nH]cn2)C(=O)C1(C)c1cccc2ccccc12)C(=O)O (stereo partly drawn) | 0.8 |
| COC(=O)[C@H](CCSC)NC(=O)CN1C(=O)N(Cc2cnc[nH]2)C(=O)C1(C)c1cccc2ccccc12 (stereo partly drawn) | 19000 |
| CC1(c2cccc3ccccc23)C(=O)N(CCCn2ccnc2)C(=O)N1Cc1ccc(Oc2ccccc2)cc1 (stereo not drawn) | 0.75 |
| CSc1ccc(CN2C(=O)N(CCCn3ccnc3)C(=O)C2(C)c2cccc3ccccc23)cc1 (stereo not drawn) | 0.7 |
